{
  "source": "PubChem BioAssay (NCI)",
  "assay_in_all_cases": "DTP human tumour cell line panel, 48 h",
  "key": {"NCI-H23 lung": {"system": "NCI-H23 lung"}, "NCI-H460 lung": {"system": "NCI-H460 lung"}, "NCI-H522 lung": {"system": "NCI-H522 lung"}, "NCI/ADR-RES ovarian": {"system": "NCI/ADR-RES ovarian"}, "OVCAR-3 ovarian": {"system": "OVCAR-3 ovarian"}, "OVCAR-4 ovarian": {"system": "OVCAR-4 ovarian"}, "OVCAR-5 ovarian": {"system": "OVCAR-5 ovarian"}, "OVCAR-8 ovarian": {"system": "OVCAR-8 ovarian"}, "PC-3 prostate": {"system": "PC-3 prostate"}, "RPMI-8226 leukemia": {"system": "RPMI-8226 leukemia"}, "RXF 393 renal": {"system": "RXF 393 renal"}, "SF-268 CNS": {"system": "SF-268 CNS"}, "SF-295 CNS": {"system": "SF-295 CNS"}, "SF-539 CNS": {"system": "SF-539 CNS"}, "SK-MEL-2 melanoma": {"system": "SK-MEL-2 melanoma"}, "SK-MEL-28 melanoma": {"system": "SK-MEL-28 melanoma"}, "SK-MEL-5 melanoma": {"system": "SK-MEL-5 melanoma"}, "SK-OV-3 ovarian": {"system": "SK-OV-3 ovarian"}, "SN12C renal": {"system": "SN12C renal"}, "SNB-19 CNS": {"system": "SNB-19 CNS"}, "SNB-75 CNS": {"system": "SNB-75 CNS"}, "SR leukemia": {"system": "SR leukemia"}, "SW-620 colon": {"system": "SW-620 colon"}, "T-47D breast": {"system": "T-47D breast"}, "TK-10 renal": {"system": "TK-10 renal"}, "U251 CNS": {"system": "U251 CNS"}, "UACC-257 melanoma": {"system": "UACC-257 melanoma"}, "UACC-62 melanoma": {"system": "UACC-62 melanoma"}, "UO-31 renal": {"system": "UO-31 renal"}},
  "note": "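A five-concentration, 48-hour dose response in 96-well plates underlies each endpoint, interpolated linearly between surrounding concentrations. The concentration for 50% growth inhibition is given as GI50. TGI marks complete inhibition of growth.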",
  "data": [
    {"smiles": "COc1ccc2c(C3=C(c4cn(C)c5ccccc45)C(=O)NC3=O)coc2c1", "values": [
      {"measurement": "GI50", "setting": "NCI-H23 lung", "value": 804, "unit": "nM"},
      {"measurement": "TGI", "setting": "NCI-H23 lung", "value": 23600, "unit": "nM"},
      {"measurement": "GI50", "setting": "NCI-H460 lung", "value": 353, "unit": "nM"},
      {"measurement": "TGI", "setting": "NCI-H460 lung", "value": 11600, "unit": "nM"},
      {"measurement": "GI50", "setting": "NCI-H522 lung", "value": 188, "unit": "nM"},
      {"measurement": "TGI", "setting": "NCI-H522 lung", "value": 754, "unit": "nM"},
      {"measurement": "GI50", "setting": "NCI/ADR-RES ovarian", "value": 207, "unit": "nM"},
      {"measurement": "TGI", "setting": "NCI/ADR-RES ovarian", "value": 15000, "unit": "nM"},
      {"measurement": "GI50", "setting": "OVCAR-3 ovarian", "value": 193, "unit": "nM"},
      {"measurement": "TGI", "setting": "OVCAR-3 ovarian", "value": 787, "unit": "nM"},
      {"measurement": "GI50", "setting": "OVCAR-4 ovarian", "value": 6910, "unit": "nM"},
      {"measurement": "TGI", "setting": "OVCAR-4 ovarian", "value": 65900, "unit": "nM"},
      {"measurement": "GI50", "setting": "OVCAR-5 ovarian", "value": 901, "unit": "nM"},
      {"measurement": "TGI", "setting": "OVCAR-5 ovarian", "value": 30700, "unit": "nM"},
      {"measurement": "GI50", "setting": "OVCAR-8 ovarian", "value": 462, "unit": "nM"},
      {"measurement": "TGI", "setting": "OVCAR-8 ovarian", "value": 16500, "unit": "nM"},
      {"measurement": "GI50", "setting": "PC-3 prostate", "value": 471, "unit": "nM"},
      {"measurement": "TGI", "setting": "PC-3 prostate", "value": "> 100000", "unit": "nM"},
      {"measurement": "GI50", "setting": "RPMI-8226 leukemia", "value": 415, "unit": "nM"},
      {"measurement": "TGI", "setting": "RPMI-8226 leukemia", "value": 12600, "unit": "nM"},
      {"measurement": "GI50", "setting": "RXF 393 renal", "value": 215, "unit": "nM"},
      {"measurement": "TGI", "setting": "RXF 393 renal", "value": 1240, "unit": "nM"},
      {"measurement": "GI50", "setting": "SF-268 CNS", "value": 1190, "unit": "nM"},
      {"measurement": "TGI", "setting": "SF-268 CNS", "value": 27900, "unit": "nM"},
      {"measurement": "GI50", "setting": "SF-295 CNS", "value": 469, "unit": "nM"},
      {"measurement": "TGI", "setting": "SF-295 CNS", "value": 15100, "unit": "nM"},
      {"measurement": "GI50", "setting": "SF-539 CNS", "value": 272, "unit": "nM"},
      {"measurement": "TGI", "setting": "SF-539 CNS", "value": 1660, "unit": "nM"},
      {"measurement": "GI50", "setting": "SK-MEL-2 melanoma", "value": 191, "unit": "nM"},
      {"measurement": "TGI", "setting": "SK-MEL-2 melanoma", "value": 931, "unit": "nM"},
      {"measurement": "GI50", "setting": "SK-MEL-28 melanoma", "value": 4950, "unit": "nM"},
      {"measurement": "TGI", "setting": "SK-MEL-28 melanoma", "value": 35000, "unit": "nM"},
      {"measurement": "GI50", "setting": "SK-MEL-5 melanoma", "value": 422, "unit": "nM"},
      {"measurement": "TGI", "setting": "SK-MEL-5 melanoma", "value": 7300, "unit": "nM"},
      {"measurement": "GI50", "setting": "SK-OV-3 ovarian", "value": 368, "unit": "nM"},
      {"measurement": "TGI", "setting": "SK-OV-3 ovarian", "value": 47200, "unit": "nM"},
      {"measurement": "GI50", "setting": "SN12C renal", "value": 715, "unit": "nM"},
      {"measurement": "TGI", "setting": "SN12C renal", "value": 15300, "unit": "nM"},
      {"measurement": "GI50", "setting": "SNB-19 CNS", "value": 712, "unit": "nM"},
      {"measurement": "TGI", "setting": "SNB-19 CNS", "value": 70400, "unit": "nM"},
      {"measurement": "GI50", "setting": "SNB-75 CNS", "value": 148, "unit": "nM"},
      {"measurement": "TGI", "setting": "SNB-75 CNS", "value": 710, "unit": "nM"},
      {"measurement": "GI50", "setting": "SR leukemia", "value": 84.9, "unit": "nM"},
      {"measurement": "TGI", "setting": "SR leukemia", "value": 8680, "unit": "nM"},
      {"measurement": "GI50", "setting": "SW-620 colon", "value": 176, "unit": "nM"},
      {"measurement": "TGI", "setting": "SW-620 colon", "value": "> 57900", "unit": "nM"},
      {"measurement": "GI50", "setting": "T-47D breast", "value": 430, "unit": "nM"},
      {"measurement": "TGI", "setting": "T-47D breast", "value": 45500, "unit": "nM"},
      {"measurement": "GI50", "setting": "TK-10 renal", "value": 13600, "unit": "nM"},
      {"measurement": "TGI", "setting": "TK-10 renal", "value": 59700, "unit": "nM"},
      {"measurement": "GI50", "setting": "U251 CNS", "value": 411, "unit": "nM"},
      {"measurement": "TGI", "setting": "U251 CNS", "value": 13000, "unit": "nM"},
      {"measurement": "GI50", "setting": "UACC-257 melanoma", "value": 1440, "unit": "nM"},
      {"measurement": "TGI", "setting": "UACC-257 melanoma", "value": 27600, "unit": "nM"},
      {"measurement": "GI50", "setting": "UACC-62 melanoma", "value": 186, "unit": "nM"},
      {"measurement": "TGI", "setting": "UACC-62 melanoma", "value": 16600, "unit": "nM"},
      {"measurement": "GI50", "setting": "UO-31 renal", "value": 468, "unit": "nM"},
      {"measurement": "TGI", "setting": "UO-31 renal", "value": 23500, "unit": "nM"}
    ]}
  ]
}
